Data published in paper PMC8120209, “Longitudinal evaluation of a novel BChE PET tracer as an early in vivo biomarker in the brain of a mouse model for Alzheimer disease” (Theranostics, 2021).
pKi: −log10 of the molar value.

Legend:
PDE4D2 (h) = target: T1, PDE4D2 (h) (Homo sapiens, UniProt Q08499); assay: biochemical; design: Eurofins SafetyScreen44 enzyme assays, inhibition of control specific activity; conditions: read-out: % Inhibition of Control Values, Mean
T1 construct: gene PDE4D; isoform PDE4D2

ETA(h) = target: T2, ETA(h) (Homo sapiens, UniProt P25101); assay: biochemical; design: Eurofins SafetyScreen44 radioligand displacement, inhibition of control specific binding; conditions: read-out: % Inhibition of Control Specific Binding, Mean
T2 construct: gene EDNRA

COX1(h) = target: T3, COX1(h) (Homo sapiens, UniProt P23219); assay: biochemical; design: Eurofins SafetyScreen44 enzyme assays, inhibition of control specific activity; conditions: read-out: % Inhibition of Control Values, Mean
T3 construct: gene PTGS1

5-HT6 (h) = target: T4, 5-HT6 (h) (Homo sapiens, UniProt P50406); assay: biochemical; design: Eurofins SafetyScreen44 radioligand displacement, inhibition of control specific binding; conditions: read-out: % Inhibition of Control Specific Binding, Mean
T4 construct: gene HTR6

β1(h) = target: T5, β1(h) (Homo sapiens, UniProt P08588); assay: biochemical; design: Eurofins SafetyScreen44 radioligand displacement, inhibition of control specific binding; conditions: read-out: % Inhibition of Control Specific Binding, Mean
T5 construct: gene ADRB1

[1] = target: T6, 5-HT1B (antagonist radioligand) (Rattus norvegicus, UniProt P28564); assay: biochemical; conditions: read-out: % Inhibition of Control Specific Binding Mean
T6 construct: gene Htr1b

[2] = target: AR(h) (agonist radioligand) (Homo sapiens, UniProt P10275); assay: biochemical; conditions: read-out: % Inhibition of Control Specific Binding Mean
[3] = target: T7, MAO-A (antagonist radioligand) (Rattus norvegicus, UniProt P21396); assay: biochemical; conditions: read-out: % Inhibition of Control Specific Binding Mean
T7 construct: gene Maoa

[4] = target: T8, 5-HT1D (agonist radioligand) (Rattus norvegicus, UniProt P28565); assay: biochemical; conditions: read-out: % Inhibition of Control Specific Binding Mean
T8 construct: gene Htr1d

[5] = target: T9, Potassium Channel hERG (human) (Homo sapiens, UniProt Q12809); assay: in vitro; design: Eurofins SafetyScreen44 radioligand displacement, inhibition of control specific binding; conditions: read-out: % Inhibition of Control Specific Binding, Mean
T9 construct: gene KCNH2

adrenergic receptor α2A = target: T10, adrenergic receptor α2A (Homo sapiens, UniProt P08913); assay: SafetyScreen44 panel (Eurofins), single concentration […]; conditions: read-out: % inhibition at 10 μM
T10 construct: gene ADRA2A

µ-opioid receptor = target: T11, µ-opioid receptor (Rattus norvegicus, UniProt P33535); assay: [3H]DAMGO radioligand displacement in rat cortex homogenates; assay type: binding
T11 construct: gene Oprm1; rat cortex homogenates

A2A(h) = target: T12, A2A(h) (Homo sapiens, UniProt P29274); assay: biochemical; design: Eurofins SafetyScreen44 radioligand displacement, inhibition of control specific binding; conditions: read-out: % Inhibition of Control Specific Binding, Mean
T12 construct: gene ADORA2A

μ (MOP) (h) = target: T13, μ (MOP) (h) (Homo sapiens, UniProt P35372); assay: biochemical; design: Eurofins SafetyScreen44 radioligand displacement, inhibition of control specific binding; conditions: read-out: % Inhibition of Control Specific Binding, Mean
T13 construct: gene OPRM1

N muscle-type (h) = target: T14, N muscle-type (h) (Homo sapiens, UniProt P02708); assay: biochemical; design: Eurofins SafetyScreen44 radioligand displacement, inhibition of control specific binding; conditions: read-out: % Inhibition of Control Specific Binding, Mean
T14 construct: gene CHRNA1

M4(h) = target: T15, M4(h) (Homo sapiens, UniProt P08173); assay: biochemical; design: Eurofins SafetyScreen44 radioligand displacement, inhibition of control specific binding; conditions: read-out: % Inhibition of Control Specific Binding, Mean
T15 construct: gene CHRM4

M5(h) = target: T16, M5(h) (Homo sapiens, UniProt P08912); assay: biochemical; design: Eurofins SafetyScreen44 radioligand displacement, inhibition of control specific binding; conditions: read-out: % Inhibition of Control Specific Binding, Mean
T16 construct: gene CHRM5

sigma 1 (h) = target: T17, sigma 1 (h) (Homo sapiens, UniProt Q99720); assay: biochemical; design: Eurofins SafetyScreen44 radioligand displacement, inhibition of control specific binding; conditions: read-out: % Inhibition of Control Specific Binding, Mean
T17 construct: gene SIGMAR1

M1(h) = target: T18, M1(h) (Homo sapiens, UniProt P11229); assay: biochemical; design: Eurofins SafetyScreen44 radioligand displacement, inhibition of control specific binding; conditions: read-out: % Inhibition of Control Specific Binding, Mean
T18 construct: gene CHRM1

D2L(h) = target: T19, D2L(h) (Homo sapiens, UniProt P14416); assay: biochemical; design: Eurofins SafetyScreen44 radioligand displacement, inhibition of control specific binding; conditions: read-out: % Inhibition of Control Specific Binding, Mean
T19 construct: gene DRD2; long isoform D2L

5-HT7 (h) = target: T20, 5-HT7 (h) (Homo sapiens, UniProt P34969); assay: biochemical; design: Eurofins SafetyScreen44 radioligand displacement, inhibition of control specific binding; conditions: read-out: % Inhibition of Control Specific Binding, Mean
T20 construct: gene HTR7

CCK1 (CCKA) (h) = target: T21, CCK1 (CCKA) (h) (Homo sapiens, UniProt P32238); assay: biochemical; design: Eurofins SafetyScreen44 radioligand displacement, inhibition of control specific binding; conditions: read-out: % Inhibition of Control Specific Binding, Mean
T21 construct: gene CCKAR

H1(h) = target: T22, H1(h) (Homo sapiens, UniProt P35367); assay: biochemical; design: Eurofins SafetyScreen44 radioligand displacement, inhibition of control specific binding; conditions: read-out: % Inhibition of Control Specific Binding, Mean
T22 construct: gene HRH1

5-HT1B (h) = target: T23, 5-HT1B (h) (Homo sapiens, UniProt P28222); assay: biochemical; design: Eurofins SafetyScreen44 radioligand displacement, inhibition of control specific binding; conditions: read-out: % Inhibition of Control Specific Binding, Mean
T23 construct: gene HTR1B

D3(h) = target: T24, D3(h) (Homo sapiens, UniProt P35462); assay: biochemical; design: Eurofins SafetyScreen44 radioligand displacement, inhibition of control specific binding; conditions: read-out: % Inhibition of Control Specific Binding, Mean
T24 construct: gene DRD3

[6] = target: T25, norepinephrine transporter(h) (Homo sapiens, UniProt P23975); assay: biochemical; design: Eurofins SafetyScreen44 radioligand displacement, inhibition of control specific binding; conditions: read-out: % Inhibition of Control Specific Binding, Mean
T25 construct: gene SLC6A2

CB1(h) = target: T26, CB1(h) (Homo sapiens, UniProt P21554); assay: biochemical; design: Eurofins SafetyScreen44 radioligand displacement, inhibition of control specific binding; conditions: read-out: % Inhibition of Control Specific Binding, Mean
T26 construct: gene CNR1

T4 sequence (P50406 whole entry): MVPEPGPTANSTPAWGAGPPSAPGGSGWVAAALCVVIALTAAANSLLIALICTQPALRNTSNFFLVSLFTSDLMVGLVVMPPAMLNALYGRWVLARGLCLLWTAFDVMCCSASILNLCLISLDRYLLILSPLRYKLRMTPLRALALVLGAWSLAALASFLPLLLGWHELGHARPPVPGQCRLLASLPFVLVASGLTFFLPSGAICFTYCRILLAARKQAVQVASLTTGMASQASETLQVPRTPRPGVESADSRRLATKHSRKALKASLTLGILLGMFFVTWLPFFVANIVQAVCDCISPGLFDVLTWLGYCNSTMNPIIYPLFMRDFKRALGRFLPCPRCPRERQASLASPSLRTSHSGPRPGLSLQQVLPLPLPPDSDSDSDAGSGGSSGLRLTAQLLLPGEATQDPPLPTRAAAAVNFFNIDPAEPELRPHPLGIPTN
T25 sequence (P23975 whole entry): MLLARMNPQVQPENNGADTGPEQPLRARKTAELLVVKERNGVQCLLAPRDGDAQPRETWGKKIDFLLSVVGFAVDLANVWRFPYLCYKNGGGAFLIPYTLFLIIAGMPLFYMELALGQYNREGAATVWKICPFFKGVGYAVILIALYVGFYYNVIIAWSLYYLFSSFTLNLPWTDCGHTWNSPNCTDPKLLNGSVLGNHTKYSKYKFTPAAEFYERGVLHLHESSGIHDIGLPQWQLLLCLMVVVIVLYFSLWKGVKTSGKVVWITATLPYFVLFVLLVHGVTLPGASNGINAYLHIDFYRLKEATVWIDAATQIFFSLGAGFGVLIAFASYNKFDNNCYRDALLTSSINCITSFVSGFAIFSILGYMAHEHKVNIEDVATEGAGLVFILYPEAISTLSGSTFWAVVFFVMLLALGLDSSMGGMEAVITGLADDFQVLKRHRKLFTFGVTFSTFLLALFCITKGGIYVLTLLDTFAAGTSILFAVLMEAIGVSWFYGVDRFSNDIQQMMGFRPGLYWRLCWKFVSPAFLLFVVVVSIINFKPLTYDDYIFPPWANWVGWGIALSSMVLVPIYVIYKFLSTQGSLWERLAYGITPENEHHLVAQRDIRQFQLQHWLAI
T2 sequence (P25101 whole entry): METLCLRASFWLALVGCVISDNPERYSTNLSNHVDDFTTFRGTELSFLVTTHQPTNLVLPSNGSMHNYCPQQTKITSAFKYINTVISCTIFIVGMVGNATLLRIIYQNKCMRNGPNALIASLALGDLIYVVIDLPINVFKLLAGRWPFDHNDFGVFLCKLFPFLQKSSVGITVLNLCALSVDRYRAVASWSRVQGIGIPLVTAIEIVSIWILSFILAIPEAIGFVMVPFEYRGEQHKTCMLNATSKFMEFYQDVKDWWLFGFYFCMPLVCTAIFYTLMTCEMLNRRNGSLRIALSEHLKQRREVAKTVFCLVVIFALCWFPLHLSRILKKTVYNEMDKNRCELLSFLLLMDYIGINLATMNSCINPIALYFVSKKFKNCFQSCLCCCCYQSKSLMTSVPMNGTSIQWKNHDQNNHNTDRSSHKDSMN
T7 sequence (P21396 whole entry): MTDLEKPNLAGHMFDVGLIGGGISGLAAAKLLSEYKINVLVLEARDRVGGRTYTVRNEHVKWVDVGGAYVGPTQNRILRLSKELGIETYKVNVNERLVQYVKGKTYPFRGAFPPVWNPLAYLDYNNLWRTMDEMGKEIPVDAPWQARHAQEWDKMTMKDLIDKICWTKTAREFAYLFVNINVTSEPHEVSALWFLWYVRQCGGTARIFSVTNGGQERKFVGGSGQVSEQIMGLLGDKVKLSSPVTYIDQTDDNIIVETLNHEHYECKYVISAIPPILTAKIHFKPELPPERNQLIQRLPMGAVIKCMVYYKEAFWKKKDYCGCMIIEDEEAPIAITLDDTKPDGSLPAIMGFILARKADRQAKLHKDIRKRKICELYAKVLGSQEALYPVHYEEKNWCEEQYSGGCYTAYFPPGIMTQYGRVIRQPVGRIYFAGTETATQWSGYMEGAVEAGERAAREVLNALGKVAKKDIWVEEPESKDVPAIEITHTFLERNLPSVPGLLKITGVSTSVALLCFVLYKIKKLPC
T11 sequence (P33535 whole entry): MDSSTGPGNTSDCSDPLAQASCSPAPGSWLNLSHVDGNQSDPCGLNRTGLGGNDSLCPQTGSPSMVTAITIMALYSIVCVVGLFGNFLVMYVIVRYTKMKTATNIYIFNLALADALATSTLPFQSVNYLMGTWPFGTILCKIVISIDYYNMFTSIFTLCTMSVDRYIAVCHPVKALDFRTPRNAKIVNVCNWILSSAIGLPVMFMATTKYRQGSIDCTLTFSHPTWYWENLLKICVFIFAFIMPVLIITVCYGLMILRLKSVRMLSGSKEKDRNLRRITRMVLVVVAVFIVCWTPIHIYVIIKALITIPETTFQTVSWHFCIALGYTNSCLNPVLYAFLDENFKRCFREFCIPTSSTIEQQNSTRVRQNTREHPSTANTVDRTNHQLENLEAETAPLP
Chain of AR(h) (agonist radioligand) (P10275 whole entry): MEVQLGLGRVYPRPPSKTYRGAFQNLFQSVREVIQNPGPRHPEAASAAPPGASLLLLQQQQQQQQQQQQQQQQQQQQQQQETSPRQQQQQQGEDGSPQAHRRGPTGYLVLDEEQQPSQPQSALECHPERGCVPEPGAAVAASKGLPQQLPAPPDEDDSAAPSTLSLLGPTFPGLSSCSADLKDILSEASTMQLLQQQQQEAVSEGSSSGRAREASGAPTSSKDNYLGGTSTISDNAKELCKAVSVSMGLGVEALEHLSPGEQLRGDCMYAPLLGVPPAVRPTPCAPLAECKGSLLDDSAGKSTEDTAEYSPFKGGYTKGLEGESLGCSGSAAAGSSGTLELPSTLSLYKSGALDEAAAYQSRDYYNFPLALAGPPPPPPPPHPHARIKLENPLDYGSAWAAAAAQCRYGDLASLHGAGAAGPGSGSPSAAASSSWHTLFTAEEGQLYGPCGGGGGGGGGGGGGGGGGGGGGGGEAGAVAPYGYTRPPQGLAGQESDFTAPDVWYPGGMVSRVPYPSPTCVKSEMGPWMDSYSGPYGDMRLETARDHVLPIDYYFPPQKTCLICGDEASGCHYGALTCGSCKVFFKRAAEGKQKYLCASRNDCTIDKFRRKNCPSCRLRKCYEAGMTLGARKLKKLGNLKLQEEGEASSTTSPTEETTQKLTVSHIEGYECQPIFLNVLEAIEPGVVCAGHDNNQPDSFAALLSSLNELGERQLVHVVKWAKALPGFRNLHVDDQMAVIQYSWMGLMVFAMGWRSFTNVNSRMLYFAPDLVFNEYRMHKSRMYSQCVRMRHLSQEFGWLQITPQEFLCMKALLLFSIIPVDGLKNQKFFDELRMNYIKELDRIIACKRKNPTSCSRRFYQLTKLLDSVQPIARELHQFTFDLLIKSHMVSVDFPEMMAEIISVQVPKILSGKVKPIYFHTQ
T16 sequence (P08912 whole entry): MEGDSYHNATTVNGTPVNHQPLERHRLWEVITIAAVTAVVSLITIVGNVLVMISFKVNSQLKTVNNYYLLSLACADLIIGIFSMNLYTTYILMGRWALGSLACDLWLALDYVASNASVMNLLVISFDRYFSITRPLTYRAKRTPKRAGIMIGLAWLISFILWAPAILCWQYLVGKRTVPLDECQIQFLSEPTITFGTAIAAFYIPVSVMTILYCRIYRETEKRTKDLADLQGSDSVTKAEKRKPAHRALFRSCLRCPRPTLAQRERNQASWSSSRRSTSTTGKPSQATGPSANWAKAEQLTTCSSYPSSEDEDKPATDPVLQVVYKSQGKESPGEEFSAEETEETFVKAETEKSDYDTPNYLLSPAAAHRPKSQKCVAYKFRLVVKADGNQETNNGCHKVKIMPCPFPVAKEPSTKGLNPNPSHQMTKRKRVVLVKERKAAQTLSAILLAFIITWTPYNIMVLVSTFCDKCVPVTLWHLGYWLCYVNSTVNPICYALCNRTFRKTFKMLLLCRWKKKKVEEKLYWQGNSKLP
T3 sequence (P23219 whole entry): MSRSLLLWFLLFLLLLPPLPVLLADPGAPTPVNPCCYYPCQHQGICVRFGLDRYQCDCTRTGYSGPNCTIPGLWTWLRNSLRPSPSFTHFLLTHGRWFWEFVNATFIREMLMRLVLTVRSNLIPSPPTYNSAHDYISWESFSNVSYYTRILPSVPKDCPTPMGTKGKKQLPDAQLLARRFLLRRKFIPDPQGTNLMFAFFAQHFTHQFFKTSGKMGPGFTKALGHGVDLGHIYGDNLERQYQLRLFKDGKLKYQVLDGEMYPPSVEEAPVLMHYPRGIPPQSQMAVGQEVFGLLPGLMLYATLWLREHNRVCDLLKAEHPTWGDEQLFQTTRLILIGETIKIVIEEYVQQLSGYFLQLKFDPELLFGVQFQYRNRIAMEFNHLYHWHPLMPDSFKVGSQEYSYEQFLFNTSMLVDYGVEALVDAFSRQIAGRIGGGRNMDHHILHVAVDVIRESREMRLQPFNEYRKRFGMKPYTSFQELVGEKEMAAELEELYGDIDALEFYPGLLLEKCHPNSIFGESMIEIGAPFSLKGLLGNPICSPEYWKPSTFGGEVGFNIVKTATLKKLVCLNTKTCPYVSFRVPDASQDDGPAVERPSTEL
T6 sequence (P28564 whole entry): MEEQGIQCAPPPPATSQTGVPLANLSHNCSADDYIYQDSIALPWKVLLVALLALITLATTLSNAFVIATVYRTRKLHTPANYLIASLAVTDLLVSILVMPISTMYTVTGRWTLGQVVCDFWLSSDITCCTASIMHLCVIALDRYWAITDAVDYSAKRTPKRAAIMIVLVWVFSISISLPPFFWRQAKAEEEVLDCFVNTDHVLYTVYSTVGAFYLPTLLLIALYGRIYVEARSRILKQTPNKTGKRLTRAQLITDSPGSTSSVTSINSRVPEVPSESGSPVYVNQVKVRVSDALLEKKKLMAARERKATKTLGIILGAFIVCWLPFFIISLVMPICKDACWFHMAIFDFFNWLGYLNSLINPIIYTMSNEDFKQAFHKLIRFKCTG

**Q.** Which results are given for `COCCN(CC1CCCN(Cc2ccccc2)C1)S(=O)(=O)c1ccc2ccccc2c1` (racemic) [compound 4, (±)N-((1-benzylpiperidin-3-yl)methyl)-N-(2-methoxyethyl)naphthalene-2-sulfonamide]?
**A.** inhibition at 10 µM (PDE4D2 (h)): -3.7%; inhibition at 10 µM (ETA(h)): -3.9%; inhibition at 10 µM (COX1(h)): 0.4%; inhibition at 10 µM (5-HT6 (h)): 87.1%; inhibition at 10 µM (β1(h)): 4.5%; inhibition at 10 µM [1]: -12.8%; inhibition at 10 µM [2]: -6.6%; inhibition at 10 µM [3]: -0.2%; inhibition at 10 µM [4]: 33%; inhibition at 10 µM [5]: 84.8%; inhibition at 10 µM (adrenergic receptor α2A): 60.9%; pKi (µ-opioid receptor): 5.74; inhibition at 10 µM (A2A(h)): 20.5%; inhibition at 10 µM (μ (MOP) (h)): 82.7%; inhibition at 10 µM (N muscle-type (h)): 23%; inhibition at 10 µM (M4(h)): 63.2%; inhibition at 10 µM (M5(h)): 17.6%; inhibition at 10 µM (sigma 1 (h)): 99.9%; inhibition at 10 µM (M1(h)): 53.1%; inhibition at 10 µM (D2L(h)): 26.6%; inhibition at 10 µM (5-HT7 (h)): 84.3%; inhibition at 10 µM (CCK1 (CCKA) (h)): 21.9%; inhibition at 10 µM (H1(h)): 29%; inhibition at 10 µM (5-HT1B (h)): 45%; inhibition at 10 µM (D3(h)): 38.4%; inhibition at 10 µM [6]: 34.1%; inhibition at 10 µM (CB1(h)): -44.4%
